The structures appear in SMILES notation. Where two headings read alike, the source gives them in different places.

Series [1] can be described thus: Single and multiple-dose open safety and tolerability study, pharmacokinetics of pemirolast potassium tablets in humans. It is filed as in vivo, human. As to conditions: for Cmax: human, plasma; for Cmax / Cmax, mean: multiple dose, healthy male subjects, N = 6. The method, then:
This study comprised 18 healthy male subjects, 18-45 years of age, and was a single and multiple-dose, open study assessing the safety and tolerability of pemirolast potassium tablets (10 mg, Ulgixal™ tablets) with the doses 10, 30 and 50 mg (containing 8.5, 25.5 and 42.5 mg pemirolast free acid, respectively) b.i.d. (6 subjects in each dose group). The subjects received a single dose on the first day, then b.i.d. for three days and a single dose on the fifth day. The study was performed at the Berzelius Clinical Research Center AB in Linköping, Sweden. All laboratory pharmacokinetic analyses were performed by Quintiles AB, Uppsala, Sweden. Pharmacokinetic calculations were performed by Pharm Assist Sweden AB, Uppsala, Sweden. Mean Cmax data after multiple dosing are shown in and Table 1, and mean plasma concentrations over time on Day 5 are shown in FIG. 1.

The nature of series [2]: Toxicokinetics of pemirolast in the dog, 7-day oral repeated dose. Also noted: species or system dog (Beagles). The following applies: Beagle, in vivo, 75 mg/kg daily oral, 7th day. From the text:
There were no major differences in kinetics between males and females.

The conditions of series [3]: dog, in vivo. The method, then: The study, including all analyses and calculations, were performed by WIL Research, France, in compliance with Good Laboratory Practices (GLP).
Another series deals with hERG potassium channel (Homo sapiens, UniProt Q12809). As for the experimental part:
This study was performed by PhysioStim, France, a GLP compliant facility.
The effects of pemirolast on hERG currents in HEK-293 cells stably expressing the hERG potassium channel were studied using patch-clamp technique.

Series [4] is described as follows: Later pharmacokinetic studies in healthy volunteers, multiple doses b.i.d. for three and a half days. It is filed as in vivo, human. As to conditions: for Cmax: human, plasma, oral, read-out: Actual Cmax. The source says:
Later pharmacokinetic studies in healthy volunteers (7 to 8 in each group) have shown that actual Cmax values for various multiple doses (b.i.d. for three and a half days) are as follows: […]

For series [5], the system named is airway hyperresponsiveness to mannitol challenge in asthma patients. The series can be described thus: Clinical trial: mannitol challenge test (PD15 for mannitol) in asthma patients. The following applies: for Mannitol dose tolerated (PD15) at the placebo visit; reduction in AHR/BHR: n=4, FIG. 2. It is filed as in vivo, human. The method, then:
This study comprised male and female asthma patients (18 to 46 years of age) with a positive asthma test (as determined by a mannitol challenge test (vide infra) performed within 15 days prior to enrolment at the first screening visit, Visit 1).
It was a double-blind, randomized, placebo-controlled, cross-over trial assessing the efficacy of orally administered single doses of placebo and 40 mg and 400 mg of pemirolast (immediate release tablets containing pemirolast sodium hemihydrate, as well as microcrystalline cellulose, mannitol, copovidone fine, croscarmellose sodium, anhydrous colloidal silica and magnesium stearate) in patients challenged with mannitol inhalation as described below.
The patients were exposed to the different treatments at three separate hospital visits at least 2 (mean 6.8, median 6) days apart. The data reported in FIGS. 2 and 3 below represent the patients that received placebo treatment at the first visit (n=8) or placebo at the second visit (after 40 mg at the first visit (n=4) or after 400 mg at the first visit (n=4)).
All doses were administered 3 hours before initiation of the mannitol challenge test to ensure peak plasma concentrations of pemirolast when the mannitol challenge was performed (blood samples for analysing plasma concentrations of pemirolast were collected 3 hours after drug administration).
There were 5 visits during the trial: A screening visit (Visit 1, within 15 days before Visit 2), three visits for treatment with Investigational Medicinal Products (IMP; pemirolast 40 or 400 mg, or placebo) (Visit 2-4, spaced at least 2 days apart), and a final follow-up visit by telephone (Visit 5, at least 2, but less than 4 days after Visit 4 and within 30 days of Visit 2). […]

Series [6] is described as follows: Clinical trial: plasma pemirolast concentration by LC-MS/MS. The following applies: human, 40 and 400 mg single oral doses, asthma patients. It is filed as in vivo. The method, then: All doses were administered 3 hours before initiation of the mannitol challenge test to ensure peak plasma concentrations of pemirolast when the mannitol challenge was performed (blood samples for analysing plasma concentrations of pemirolast were collected 3 hours after drug administration). All laboratory pharmacokinetic analyses were performed by Clinical Pharmacology, Karolinska University Hospital, Stockholm, Sweden. Briefly, the concentration of pemirolast in human plasma was determined by solid phase extraction and liquid chromatography followed by tandem mass spectrometric detection (LC-MS/MS). The analytical method, utilizing a 200 μL sample aliquot, has a calibration range of 4.00-4000 ng/mL, with a lower limit of quantification (LLOQ) set at 4.00 ng/mL.

Series [7] deals with asthma patients. As to the kind of experiment: Clinical trial: FEV1 before and 3 hours after treatment. The following applies: 3 hours after an oral dose of 400 mg; 3.58±0.86 L before treatment; mean ±SD, n=22. It is filed as in vivo, human.
Series [8] relates to 11β-PGF2α (mast cell biomarker prostaglandin D2 metabolite). The series can be described thus: Clinical trial: urinary excretion of PGD2 metabolite 11β-PGF2α (EIA). It is filed as in vivo, human. The following applies: patients treated at least 3 days before with 40 mg or 400 mg, 4+4 patients, FIG. 3. As for the experimental part: A secondary endpoint in the study was to analyse changes in urinary excretion of a metabolite (11β-prostaglandin (PG) F2α) of the lung mast cell mediator/biomarker prostaglandin D2. 11β-PGF2α analysis was performed in unextracted urine samples using a validated enzyme immunoassays (EIA) kit from Cayman Chemical, Ann Arbor, Mich., USA (Item no 516521). […]

The test system of series [9] is asthma patients. The series can be described thus: Clinical trial: adverse events, vital signs and laboratory tests. It is filed as in vivo, human. As to conditions: single oral doses of 40 mg and 400 mg.
Series [10] deals with airway or bronchial hyperresponsiveness. The following applies: 50 mg doses twice daily in humans (Kemp et al 1992); cited from earlier work.
Where [11] appears, read: 10 mg pemirolast potassium (8.5 mg free acid) oral b.i.d.
Where [12] appears, read: 30 mg pemirolast potassium (25.5 mg free acid) oral b.i.d.
Where [13] appears, read: 50 mg pemirolast potassium (42.5 mg free acid) oral b.i.d.

Sequence of hERG potassium channel (Q12809 whole entry): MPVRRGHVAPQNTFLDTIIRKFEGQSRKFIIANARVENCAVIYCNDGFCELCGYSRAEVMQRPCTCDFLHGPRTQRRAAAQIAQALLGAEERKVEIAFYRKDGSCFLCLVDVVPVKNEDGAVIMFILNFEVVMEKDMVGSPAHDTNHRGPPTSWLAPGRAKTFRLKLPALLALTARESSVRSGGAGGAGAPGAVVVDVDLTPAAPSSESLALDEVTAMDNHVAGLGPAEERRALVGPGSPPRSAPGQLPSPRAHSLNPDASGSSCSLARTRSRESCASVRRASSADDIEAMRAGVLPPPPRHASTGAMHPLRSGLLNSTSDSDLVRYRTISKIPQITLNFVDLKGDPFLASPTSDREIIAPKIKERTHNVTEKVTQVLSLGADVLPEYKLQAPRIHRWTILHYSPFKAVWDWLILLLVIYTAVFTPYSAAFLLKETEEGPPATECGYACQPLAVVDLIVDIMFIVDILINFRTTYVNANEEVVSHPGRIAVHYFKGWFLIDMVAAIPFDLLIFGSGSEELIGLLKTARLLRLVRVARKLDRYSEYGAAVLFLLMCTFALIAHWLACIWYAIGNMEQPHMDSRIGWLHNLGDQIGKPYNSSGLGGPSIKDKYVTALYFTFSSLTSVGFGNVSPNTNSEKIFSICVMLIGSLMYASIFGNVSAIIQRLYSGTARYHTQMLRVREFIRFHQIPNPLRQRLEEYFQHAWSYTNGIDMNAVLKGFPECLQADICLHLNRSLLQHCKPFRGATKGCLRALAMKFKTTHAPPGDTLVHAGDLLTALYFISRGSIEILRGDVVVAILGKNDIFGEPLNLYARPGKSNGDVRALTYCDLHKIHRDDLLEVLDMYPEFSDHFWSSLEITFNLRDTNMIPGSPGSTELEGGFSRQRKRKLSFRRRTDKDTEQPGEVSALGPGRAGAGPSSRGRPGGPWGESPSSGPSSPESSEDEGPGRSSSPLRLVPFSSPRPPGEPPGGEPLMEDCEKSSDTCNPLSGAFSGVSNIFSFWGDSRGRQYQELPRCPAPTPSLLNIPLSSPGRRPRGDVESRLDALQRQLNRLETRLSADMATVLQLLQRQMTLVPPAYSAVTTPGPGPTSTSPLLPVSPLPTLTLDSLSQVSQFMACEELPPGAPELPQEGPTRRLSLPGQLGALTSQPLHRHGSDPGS

For `Cc1cccn2c(=O)c(-c3nnn[nH]3)cnc12` [pemirolast potassium], the Cmax in series [1] (setting [11]) was found to be 730 ng/mL; in [1] (setting [12]), 2040 ng/mL; in [1] (setting [13]) it was 3420 ng/mL; in series [2] (female dogs (n = 3)) it was 150000 ng/mL; in series [2] (male dogs (n = 3)), 168000 ng/mL. Also, the Safe chronic dose in [3] stood at 75 mg/kg daily. The “Decrease of hERG tail current amplitude” value on hERG potassium channel (2.7 μg/mL) is recorded as 5.4%; at hERG potassium channel (8 μg/mL), 10.2%; on hERG potassium channel (26.6 μg/mL) it was 14.1%; at hERG potassium channel (79.9 μg/mL) it was 19.0%.

For the molecule `Cc1cccn2c(=O)c(-c3nnn[nH]3)cnc12` [pemirolast], the “Cmax, mean” value in [1] (setting [11]) amounted to 730 ng/mL; in [1] (setting [12]), 2040 ng/mL; in series [1] (setting [13]), 3420 ng/mL. Besides, the “Predicted Cmax” value was 10680 ng/mL in [1] (predicted for 125 mg, linear extrapolation from 8.5 mg multiple dose); 9980 ng/mL in [1] (predicted for 125 mg, linear extrapolation from 25.5 mg multiple dose); 10070 ng/mL in series [1] (predicted for 125 mg, linear extrapolation from 42.5 mg multiple dose); 17080 ng/mL in series [1] (predicted for 200 mg, linear extrapolation from 8.5 mg multiple dose); 15980 ng/mL in [1] (predicted for 200 mg, linear extrapolation from 25.5 mg multiple dose); 16120 ng/mL in series [1] (predicted for 200 mg, linear extrapolation from 42.5 mg multiple dose). The “Predicted Cmax” value in series [1] (predicted for 400 mg, linear extrapolation from 8.5 mg multiple dose) was 34160 ng/mL; in [1] (predicted for 400 mg, linear extrapolation from 25.5 mg multiple dose) it was 31950 ng/mL; in [1] (predicted for 400 mg, linear extrapolation from 42.5 mg multiple dose) it was 32230 ng/mL. Further, the Safety and tolerability entry in series [4] (80, 200 and 320 mg b.i.d. for three and a half days) is “safe and well-tolerated”. Further, the Cmax in series [4] (80 mg b.i.d. for three and a half days) was found to be 8840 ng/mL; in [4] (200 mg b.i.d. for three and a half days) it was 32500 ng/mL; in [4] (320 mg b.i.d. for three and a half days), 51000 ng/mL. In addition, the “Mannitol PD15” value in series [5] (3 hour pre-treatment, single oral dose, asthma patients) is “increased”. For the same molecule, the entries for the “Mannitol dose tolerated (PD15) at the placebo visit; reduction in AHR/BHR” value in series [5] (single 40 mg oral dose before the placebo treatment) and in [5] (single 400 mg oral dose at least 3 days before placebo/mannitol) were “not seen” and “tolerated a much higher dose of mannitol”, respectively. This molecule also registered a half-life in [6] of 4 to 7 h. The molecule also returned an FEV1 in the series on asthma patients [7] of 3.55 ± 0.84 L. In addition, the “Urinary levels of the PGD2 biomarker (11β-PGF2α), 40 mg versus 400 mg” value in series [8] is listed as “did not differ”. Besides, the “Adverse events, vital signs, physical examination, laboratory tests” value with asthma patients [9] was “no serious adverse events”. In addition, the “Effect on airway or bronchial hyperresponsiveness” value in series [10] is on record as “no effect whatsoever”.

For orientation: Cmax means the peak of the concentration-time curve. In general, half-life refers to the time needed for the level to fall by half in the phase considered. A lower half-life goes with rapid decline.

These data come from US9415051B1, “Use of pemirolast” (priority 2015, dated 2016).
